Reference: PubChem BioAssay (NCI)
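The compound was tested at five concentrations on cells cultured in 96-well plates, with a 48-hour exposure period. The concentration for full growth arrest is given as TGI.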

Columns and labels:
Assay in all cases: NCI-60 cell line screen, 48 h
[1] = system: K-562 leukemia
[2] = system: EKVX NSCLC
[3] = system: NCI-H226 lung
[4] = system: NCI/ADR-RES ovarian
[5] = system: MDA-N
[6] = system: BT-549 breast
[7] = system: SN12C renal
[8] = system: PC-3 prostate
[9] = system: CCRF-CEM leukemia
[10] = system: SF-295 CNS

Row | Structure (SMILES) | TGI [1] [µM] | TGI [2] [µM] | TGI [3] [µM] | TGI [4] [µM] | TGI [5] [µM] | TGI [6] [µM] | TGI [7] [µM] | TGI [8] [µM] | TGI [9] [µM] | TGI [10] [µM]
1 | Cc1cc2ccccc2n1CC(=O)N1CCCC1 | > 100 | > 100 | > 100 | > 100 | > 100 | > 100 | > 100 | > 100 | > 100 | –
2 | Cc1cc(N=Cc2c(CO)cnc(C)c2O)c(N=Cc2c(CO)cnc(C)c2O)cc1C.[Zn] | – | > 100 | > 100 | > 100 | > 100 | > 100 | > 100 | > 100 | – | > 100
3 | Cc1ccc(-n2c(O)c3c(N)n[nH]c3c(C#N)c2=O)cc1 | > 100 | > 100 | > 100 | > 100 | > 100 | > 100 | > 100 | > 100 | > 100 | –
4 | C=C(CC(=O)Nc1ccc(C(=O)OC)o1)C(=O)OC | – | 45 | 66.8 | > 100 | – | – | 45.2 | 58.9 | – | > 100
5 | OCC(Cn1cncn1)(c1ccc(F)cc1F)n1cncn1 (stereo not drawn) | > 100 | – | > 100 | > 100 | > 100 | > 100 | > 100 | > 100 | > 100 | > 100
6 | S=c1nc2[nH]c3ccc(Br)cc3c2n[nH]1 | > 100 | > 100 | > 100 | > 100 | 30.7 | > 100 | > 100 | > 100 | – | –
7 | CC(NC1=NCCO1)c1cccc([N+](=O)[O-])c1 (stereo not drawn) | > 100 | > 100 | > 100 | > 100 | > 100 | – | > 100 | > 100 | > 100 | > 100
8 | CN(C)CCOC(=O)c1ccc(N)cc1 | > 100 | – | 67.4 | > 100 | > 100 | > 100 | > 100 | 35.1 | 69.8 | > 100
9 | [N-]=[N+]=NC1CC(n2cc(COCC(F)(F)F)c(=O)[nH]c2=O)OC1CO (stereo not drawn) | > 100 | > 100 | – | – | – | – | > 100 | – | > 100 | > 100
10 | CC1(C)[C@@H](Cn2cnc3c(=O)[nH]c(N)nc32)CC[C@@]1(C)CO | > 100 | > 100 | > 100 | > 100 | > 100 | – | > 100 | > 100 | > 100 | > 100
11 | CCOC(=O)CCc1c(C(=O)OCC)[nH]c(/C=C2\NC(=O)C(C)=C2CC)c1C | > 100 | 50.3 | > 100 | 32.4 | – | – | > 100 | 63.3 | > 100 | 41.3
12 | O=C(OCCN1CCCCC1)C(c1ccccc1)C1(O)CCSCC1 (stereo not drawn) | > 100 | > 100 | > 100 | > 100 | > 100 | – | > 100 | > 100 | > 100 | > 100
